Test results: US7135467B2, “HIV integrase inhibitors” (priority 2003, dated 2006)

What was measured:
[1] = target: T1, HIV-integrase (recombinant integrase) (Human immunodeficiency virus type 1 group M subtype B, UniProt P12497); experiment: HIV-Integrase Inhibition Activity (SPA bead strand-transfer assay); type: biochemical; settings: recombinant integrase on biotin labeled substrate DNA/SPA beads, P33 labeled target DNA; read-out: Activity (IC50 against HIV-integrase)
T1 construct: Recombinant integrase (0.26 ng) was incubated with the beads
Method in brief: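 Recombinant integrase (0.26 ng) was bound for 90 min at 37° C to biotin-labelled substrate DNA (5 pmole) on streptavidin SPA beads. After washing, inhibitors and 0.1 fmol P33-labelled target DNA were added, and the reaction was stopped with 10 mM EDTA. Integration was measured as CPM.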

| Structure (SMILES) | melting point | IC50 [1] |
| --- | --- | --- |
| Cn1c(N2CCOCC2)nc(C(=O)NCc2ccc(Cl)c(Cl)c2)c(O)c1=O [Compound 53, N-[(3,4-dichlorophenyl)methyl]-1,6-dihydro-5-hydroxy-1-methyl-2-(4-morpholinyl)-6-oxo-4-pyrimidinecarboxamide] | 100 to 102 °C | 3 to 100 nM |
| Cn1c(N2CCOCC2)nc(C(=O)NCc2ccc(F)c(Cl)c2)c(O)c1=O [Compound 56, N-[(3-chloro-4-fluorophenyl)methyl]-1,6-dihydro-5-hydroxy-1-methyl-2-(4-morpholinyl)-6-oxo-4-pyrimidinecarboxamide] | 170 to 171 °C | 3 to 100 nM |
| Cn1c(N2CCCCS2(=O)=O)nc(C(=O)Nc2ccc(F)cc2)c(O)c1=O [Compound 50, 2-(1,1-Dioxo-1λ^6-[1,2]thiazinan-2-yl)-5-hydroxy-1-methyl-6-oxo-1,6-dihydro-pyrimidine-4-carboxylic acid (4-fluoro-phenyl)-amide] | 285 to 291 °C (dec.) | ≥ 1000 nM |
| Cc1cc(CNC(=O)c2nc(N3CCOCC3)n(C)c(=O)c2O)ccc1F [Compound 54, N-[(4-fluoro-3-methylphenyl)methyl]-1,6-dihydro-5-hydroxy-1-methyl-2-(4-morpholinyl)-6-oxo-4-pyrimidinecarboxamide] | 182 to 185 °C | 3 to 100 nM |
| Cc1ncnn1-c1nc(C(=O)NCc2ccc(F)cc2)c(O)c(=O)n1C [Compound 61, N-[(4-fluorophenyl)methyl]-1,6-dihydro-5-hydroxy-1-methyl-2-(5-methyl-1H-1,2,4-triazol-1-yl)-6-oxo-4-pyrimidinecarboxamide] | 230 °C | 100 to 1000 nM |
| Cc1ccc(CNC(=O)c2nc(N3CCOCC3)n(C)c(=O)c2O)cc1F [Compound 55, N-[(3-fluoro-4-methylphenyl)methyl]-1,6-dihydro-5-hydroxy-1-methyl-2-(4-morpholinyl)-6-oxo-4-pyrimidinecarboxamide] | 166 to 167 °C | 3 to 100 nM |
| Cc1ncn(-c2nc(C(=O)NCc3ccc(F)c(C)c3)c(O)c(=O)n2C)n1 [Compound 60, N-[(4-fluoro-3-methylphenyl)methyl]-1,6-dihydro-5-hydroxy-1-methyl-2-(3-methyl-1H-1,2,4-triazol-1-yl)-6-oxo-4-pyrimidinecarboxamide] | 204 to 205 °C | 3 to 100 nM |
| Cc1ncn(-c2nc(C(=O)NCc3ccc(Cl)c(Cl)c3)c(O)c(=O)n2C)n1 [Compound 59, N-[(3,4-dichlorophenyl)methyl]-1,6-dihydro-5-hydroxy-1-methyl-2-(3-methyl-1H-1,2,4-triazol-1-yl)-6-oxo-4-pyrimidinecarboxamide] | 188 to 189 °C (dec.) | 3 to 100 nM |
